Results published in ChEMBL document CHEMBL3507680, “University of Dundee, Gates Library screen for HepG2 cell viability”.

Experiment: Human HepG2 cell viability assay in 384 well format
Format: toxicity, cell-based
Set-up: dose 125 nL, time 70.5 hour; cytotoxicity at 70.5 h: concentration not given beside the values
Details: HepG2 cells, read-out: Inhibition

Row | Compound | cytotoxicity at 70.5 h [%]
1 | CN(C(=O)Cc1cccs1)C1CCN(c2ccccn2)CC1 | -5.49
2 | Cc1ccccc1CCNC(=O)CN1CCCC(Cn2cncn2)C1 (stereo not drawn) | -3.82
3 | CC(=O)NCCNC(=O)CN1CCCC(Cn2cncn2)C1 (stereo not drawn) | -4.84
4 | Cc1nn(-c2ccccc2)cc1C(=O)N1CCCC(n2ccnc2C)C1 (stereo not drawn) | -4.52
5 | COc1cccc(CNC(=O)CN2CCCC(Cn3cncn3)C2)c1 (stereo not drawn) | -1.72
6 | O=C(CN1CCCC(Cn2cncn2)C1)NCc1ccccc1F (stereo not drawn) | -4.63
7 | O=C(CCc1cscn1)N1CCCC(n2cncn2)C1 (stereo not drawn) | 10.8
8 | Cc1ccc(CNC(=O)CN2CCCC(Cn3cncn3)C2)cc1 (stereo not drawn) | -2.99
9 | Cc1cc(C)n(CC2CCCCN2C(=O)c2ccc3c(c2)COC3)n1 (stereo not drawn) | 2.1
10 | CN(Cc1ccc(N2CCOCC2)cc1)C(=O)Cn1cccnc1=O | -3.91
11 | CCN1CCN(C(=O)NCc2cccnc2-n2cccn2)CC1 | 10.5
12 | Cc1ccc(OCC(O)CN2CCc3c(ncn3C3CC3)C2)cc1 (stereo not drawn) | -4.79
13 | Cc1cnn(C2CCCN(C(=O)c3cn(-c4ccccc4)nc3C)C2)c1 (stereo not drawn) | -6.2
14 | Cc1cnn(CC2CCCCN2CCCS(=O)(=O)N(C)C)c1 (stereo not drawn) | 18.7
15 | CCNc1cc2c(nn1)CCN(C(=O)c1cc(C)no1)C2 | -3.88
16 | Cc1cnn(CC2CCCCN2CCS(C)(=O)=O)c1 (stereo not drawn) | -1.02
17 | Cc1nn(C)cc1C(=O)N1CCCC(n2cncn2)C1 (stereo not drawn) | -9.27
18 | CCNc1cc2c(nn1)CCN(C(=O)c1cc3cccc(C)c3o1)C2 | -2.31
19 | Cc1cnc(CN(C)C2CCN(Cc3nc4ccccc4o3)C2)o1 (stereo not drawn) | 15.3
20 | COc1ncccc1CNC(=O)c1ccco1 | 18
21 | Cc1noc(C)c1C(=O)NCc1ccc(N2CCCCCC2)nc1 | -6.77
22 | CCN1CCN(c2ccc(CNC(=O)c3sccc3C)cn2)CC1 | -9.08
23 | CC(Cn1cccn1)NC(=O)NCc1cccnc1OC(C)C (stereo not drawn) | -4.84
24 | Cc1noc(C)c1C(=O)NCc1ccc(N2CCOCC2)nc1 | -8.43

Row | Compound | cytotoxicity at 70.5 h [%]
25 | CCN1CCN(c2ccc(CNC(=O)Cc3c(C)noc3C)cn2)CC1 | -10.4
26 | COc1ncccc1CNC(=O)NCc1ccco1 | -1.48
27 | CC(C)C(=O)N(C)CC(=O)Nc1ccc(Br)cn1 | -2.8
28 | CN(CC(=O)Nc1ccc(Br)cn1)C(=O)C(C)(C)C | -6.91
29 | CC(C)CCC(=O)N(C)CC(=O)Nc1ccc(Br)cn1 | 43.7
30 | Cc1cnn(CC2CN(CC(=O)N(C)Cc3ccccc3)CCO2)c1 (stereo not drawn) | 2.55
31 | CSC(C)C(=O)N(C)CC(=O)Nc1ccc(Br)cn1 (stereo not drawn) | -3.72
32 | CCC(CC)C(=O)N(C)CC(=O)Nc1ccc(Br)cn1 | -1.35
33 | c1cnn(CC2CCCCN2Cc2nc(-c3ccoc3)no2)c1 (stereo not drawn) | 3.95
34 | c1cncc(-c2noc(CN3CCCC3Cn3cccn3)n2)c1 (stereo not drawn) | -3.02
35 | COc1ccc(C(=O)N2CCCS2(=O)=O)cc1OC | -1.63
36 | c1cncc(-c2noc(CN3CCCCC3Cn3cccn3)n2)c1 (stereo not drawn) | 1.66
37 | CC(C)CC(=O)N(C)CC(=O)Nc1ccc(Br)cn1 | 0.489
38 | Cc1nc(CN(C)C2CCN(Cc3nc4ccccc4n3C)C2)no1 (stereo not drawn) | -2.1
39 | Cc1cccc(-c2noc(CN3CCCC3Cn3cncn3)n2)c1 (stereo not drawn) | -1.92
40 | Cc1cnc(CN(C)C2CCN(Cc3nccn3C)C2)o1 (stereo not drawn) | -3.1
41 | Cc1cc(CN(C)C(=O)c2ccc(F)c(C(F)(F)F)c2)no1 | -1.4
42 | Cc1nc(C(=O)N2CCCC2c2noc(C3CC3)n2)c[nH]1 (stereo not drawn) | -0.671
43 | Cc1cc(CN(C)C(=O)c2ccc(OCC(F)(F)F)nc2)no1 | 0.93
44 | CCc1nc(CC(=O)N2CCCCC2Cn2cccn2)cs1 (stereo not drawn) | 19
45 | CCc1nc(C2CCCN2C(=O)c2csc(COC)n2)no1 (stereo not drawn) | -0.0198
46 | OC(CNCCn1cccn1)c1cccc(F)c1 (stereo not drawn) | -7.66
47 | Cc1noc(C(C)N2CCN(Cc3nnc(C4CC4)o3)CC2)n1 (stereo not drawn) | -3.98
48 | CC(Cn1cccn1)NCC(=O)NCCc1cccs1 (stereo not drawn) | -4.39

Row | Compound | cytotoxicity at 70.5 h [%]
49 | CC(C)c1nc(C2CCCN2CC(=O)Nc2cccnc2)no1 (stereo not drawn) | -14
50 | CCc1nc(C2CCCN2Cc2cc(=O)n(C)c(=O)n2C)no1 (stereo not drawn) | -16.4
51 | Cc1cc(NC(=O)CN2CCCC2c2noc(C(C)C)n2)on1 (stereo not drawn) | -14.1
52 | CCn1nc2c(cc1=O)CN(Cc1nc(-c3cccs3)no1)CC2 | -12.8
53 | CC(Cn1cccn1)NC(=O)Cc1csc(C(C)C)n1 (stereo not drawn) | -10.5
54 | Cn1ccc(C(=O)NCc2ccc(N3CCCCC3)nc2)cc1=O | 18.6
55 | CC(C)NC(=O)c1cc(Br)c2c(c1)OCCO2 | -6.96
56 | CSc1ccccc1C(=O)NCCCN1CCc2ccccc2C1 | -5.68
57 | Cc1cc(C)n(CC2CN(CCOc3ccccc3F)CCO2)n1 (stereo not drawn) | -2.73
58 | CC(C)OCc1cccc(CNc2cnn(C)c(=O)c2Cl)c1 | 3.32
59 | CC(C)C(C)NC(=O)c1cc(Br)c2c(c1)OCCO2 (stereo not drawn) | -4.14
60 | Cc1nc(C)n(CC2CN(CCOc3ccccc3C#N)CCO2)n1 (stereo not drawn) | -8.64
61 | Cc1nc(C)n(CC2CN(CCOc3ccc(C#N)cc3)CCO2)n1 (stereo not drawn) | -13.3
62 | Cc1nc(C2CCCN(C(=O)COCCc3ccccc3)C2)no1 (stereo not drawn) | -6.43
63 | CCc1csc(C2CCCN(C(=O)COc3cc(C)on3)C2)n1 (stereo not drawn) | -8.8
64 | Cc1cn2c(n1)CCC(NC(=O)c1[nH]nc(C)c1Br)C2 (stereo not drawn) | 13.2
65 | Cc1cc(OCC(=O)N2CCCC(c3noc(C(C)C)n3)C2)no1 (stereo not drawn) | -1.68
66 | Cc1nnc(NC(=O)CN2CCCC2c2noc(C(C)C)n2)s1 (stereo not drawn) | -8.98
67 | Cc1ccc(OCCN2CCCC(c3cc(C(N)=O)[nH]n3)C2)cc1 (stereo not drawn) | -5.38
68 | Cc1ccccc1OCCN1CCCC(c2cc(C(N)=O)[nH]n2)C1 (stereo not drawn) | -6.71
69 | Cc1cccc(OCCN2CCCC(c3cc(C(N)=O)[nH]n3)C2)c1 (stereo not drawn) | -7.94
70 | Cc1cc(NC(=O)CN2CCCC2c2noc(C)n2)n(C(C)(C)C)n1 (stereo not drawn) | -7.96
71 | Cc1nc(C(=O)N2CCCC2c2cnn(C)c2)ccc1C#N (stereo not drawn) | 20.3
72 | COc1cccc(COCC(=O)N2CCCC(N3CCCC3)CC2)c1 (stereo not drawn) | 3.21

Row | Compound | cytotoxicity at 70.5 h [%]
73 | CN(CC1COc2ccccc2O1)C(=O)NCCCn1ccnc1 (stereo not drawn) | 33.9
74 | COc1cccc(COCC(=O)N2CCN(CC(C)(C)O)CC2)c1 | 4.32
75 | Cc1cccc(-c2nc(CN3CCCCC3Cn3cncn3)no2)c1 (stereo not drawn) | -4.62
76 | Cc1cccc2c1OCCC2NCc1c(C)nn(C)c1N(C)C (stereo not drawn) | 35
77 | O=C(CN1CCC(c2cccc(F)c2)C1)NCc1ccco1 (stereo not drawn) | 59.3
78 | O=C(NCCCn1cncn1)N1CCCC(N2CCCC2)C1 (stereo not drawn) | -4.6
79 | CCC1CCCN(C(=O)Cc2csc(-c3ncccn3)n2)C1 (stereo not drawn) | 36.3
80 | CC(C(=O)N1CCCN(Cc2ccc(C#N)cc2)CC1)n1ccnc1 (stereo not drawn) | 0.793
81 | COC(=O)CN(C)C1CCc2ccccc21 (stereo not drawn) | -4.82
82 | Cc1nc(C2CCCN2CCCNS(C)(=O)=O)no1 (stereo not drawn) | -0.166
83 | Cc1noc(CCCC(=O)NC(C)c2ccccn2)n1 (stereo not drawn) | -0.329
84 | COc1c(CNCc2cnn(C)c2)c(C(C)C)nn1C | 7.69
85 | CN(CC(=O)N(C)C1CCCCC1)C1CCc2ccccc21 (stereo not drawn) | -3.54
86 | Cc1c(C(=O)NC(CN2CCCC2=O)c2ccccc2)cnn1C (stereo not drawn) | 0.932
87 | CCN(Cc1ccc(OC)c(F)c1)C(=O)c1ccc(C)[nH]c1=O | -3.76
88 | CC(C)(C)n1cc(C(=O)N2CCN(Cc3ccccc3F)CC2)cn1 | 5.09
89 | CC(=O)N1CCN(C(=O)CCOc2ccc(C(C)C)cc2)CC1 | -3.31
90 | Cc1nc(-c2ccsc2)ccc1C(=O)NCCC1CCCO1 (stereo not drawn) | 28.6
91 | CNC(=O)NC(=O)CN1CCC(c2cccc(F)c2)C1 (stereo not drawn) | -4.22
92 | Cc1cc(NC(=O)CN2CCn3c(nnc3C3CC3)C2)n(C)n1 | 7.81
93 | CNc1nc(CNC(=O)Nc2cccc(F)c2C)cs1 | -7.06
94 | Cc1noc(CCCC(=O)NC(C)c2cn(-c3ccccc3)nn2)n1 (stereo not drawn) | -3
95 | CNc1nc(CNC(=O)Nc2ccccc2-c2noc(C)n2)cs1 | 7.32
96 | COc1c(CNCc2ccc(CN(C)C)cc2)c(C(C)C)nn1C | 2.15

Row | Compound | cytotoxicity at 70.5 h [%]
97 | Cc1noc(C)c1CCC(=O)N1CCCN(Cc2cscn2)CC1 | -2.08
98 | OC(COCc1ccccc1Cl)CN1CC(n2cccn2)C1 (stereo not drawn) | 4.22
99 | Cc1ncc(CNC2CCCN(Cc3noc(C4CC4)n3)C2)s1 (stereo not drawn) | -2.63
100 | Cc1cc2n(n1)CC(CNCc1cnn(-c3ccccc3)c1)CN2 (stereo not drawn) | -3.87
101 | O=C(Cc1ccc2c(c1)OCO2)N1CCN(c2cnccn2)CC1 | -8.46
102 | CCOc1ccccc1OC1CCN(C(=O)c2nc(=O)[nH][nH]2)CC1 | 27.9
103 | CC(C)Oc1ncccc1CNC(=O)C1CCCN(C(=O)C2CC2)C1 (stereo not drawn) | 6.38
104 | c1cnn(CC2CN(Cc3nc(-c4ccsc4)no3)CCO2)c1 (stereo not drawn) | -16.6
105 | O=C(c1ccc(NC2CC2)nc1)N1CCCC(n2cccn2)C1 (stereo not drawn) | -4.81
106 | CCOc1ccccc1C(CC(=O)Nc1ccc(C)cn1)NC(C)=O (stereo not drawn) | -9.08
107 | Cc1ccc(N2CCCN(C(=O)C3(C#N)CCCCC3)CC2)nn1 | -0.352
108 | CCc1ccc(C(=O)N2CCN(CCS(C)(=O)=O)CC2)o1 | -14.1
109 | COc1ccc(OC)c(C(O)CN2CC(n3cccn3)C2)c1 (stereo not drawn) | -9.37
110 | Cc1ncc(CN(C)C2CCCN(Cc3noc(C4CC4)n3)C2)s1 (stereo not drawn) | -12.3
111 | CC(C)c1ncc2c(n1)CN(Cc1cccc(OCC(N)=O)c1)CC2 | -7.58
112 | CC(C)c1nc(C2CCCN2CC(=O)N2CCc3ccccc32)no1 (stereo not drawn) | -3.85
113 | Cc1csc(N2CCCN(C(=O)C3(C#N)CCCCC3)CC2)n1 | -9.35
114 | CC(C)c1nc(C2CCCN2CC(=O)N2CCNC2=O)no1 (stereo not drawn) | -3.44
115 | CC(C)c1csc(C2CCCN(C(=O)Cn3ccccc3=O)C2)n1 (stereo not drawn) | 23.3
116 | CC(C)c1ncc2c(n1)CN(Cc1cccc(C#N)c1)CC2 | 4.14
117 | CCc1nc(C2CCCN(C(=O)CCn3ccccc3=O)C2)no1 (stereo not drawn) | -0.684
118 | CCn1ccnc1CN1CCN(CCOc2ccccc2OC)CC1 | 7.36
